Assay results as given in patent US11673933B2, “Method for using insulin degludec for the improvement of glycemic control and reduction of acute and long-term diabetes complications” (Novo Nordisk A/S, priority 2016, dated 2023).

Columns and labels:
[1] = test system: adult human subjects with type 2 diabetes at high risk for cardiovascular events; test: Example 1 cardiovascular outcomes trial (DEVOTE), insulin degludec vs insulin glargine: SMPG and blood pressure variability; format: in vivo
Method: (§1) A long-term, multi-centre, multi-national, randomised, double-blind, parallel-group, active comparator-controlled trial with 7637 human subjects was carried out with treatment that would continue until at least 633 positively adjudicated primary cardiovascular events were accrued. This trial concerned incidence of cardiovascular events in adult human subjects with type 2 diabetes that were at high risk for cardiovascular events, including such subjects with existing cardiovascular disease. The primary objective of this trial was to confirm the cardiovascular safety of insulin degludec compared to that of insulin glargine. The secondary objective was to assess efficacy of insulin degludec on markers of glycaemic control and to assess safety on other parameters in subjects with type 2 diabetes that were at high risk for cardiovascular events.
Subjects were randomised 1:1 in a double-blinded manner to receive blinded insulin degludec or blinded insulin glargine, each added to standard of care. […] For subjects receiving premixed/biphasic insulin OD, the basal component was calculated and transferred unit-to-unit to investigational product OD. The bolus insulin component was calculated and transferred unit-to-unit to bolus insulin and given at the most appropriate meal at the investigator's discretion. For subjects receiving premixed/biphasic insulin twice daily (or more), the total basal component was calculated, reduced by 20-30% and transferred to investigational product OD; the bolus component was to be calculated and transferred to insulin aspart and dosed with the most appropriate meals at the investigator's discretion. […]
Subjects adjusted their basal insulin dose weekly, aiming for a pre-breakfast (fasting) SMPG value of 71-90 mg/dL (4.0-5.0 mmol/L) by using the algorithm in Table 6. The basal dose was adjusted based on the lowest of three pre-breakfast SMPG values, preferably measured two days prior to dose adjustment and on the day of the dose adjustment. […]

[2] = test system: individuals with type 2 diabetes and established cardiovascular risk (MACE); test: CV risk model based on the DEVOTE trial: MACE hazard ratio IDeg/IGlar by CV risk score and subgroup; format: in vivo, human
Method: as §1
The results of this trial may be presented herein as a number or fraction of subjects experiencing an event. Alternatively, the results of this trial may be presented with hazard ratios estimated in a Cox proportional hazard model, which is the standard statistical model used for estimating time to an event. The term “hazard ratio” (also referred to as “HR”) as used herein means the instantaneous risk ratio of experiencing an event when administered insulin degludec compared to insulin glargine which are the two treatments in this trial. An upper limit of the 95% confidence interval (CI) for the HR of less than 1.00 means that the estimated treatment ratio between insulin degludec and insulin glargine with respect to the event of interests is statistically significant in favour of insulin degludec on a 5% significance level. A 5% significance level is the standard level for investigating significance in clinical trials.
Based on the DEVOTE trial, a cardiovascular (CV) risk score has been developed for individuals with established cardiovascular risk. This risk score was developed using available medical history, baseline information and cardiovascular events occurring during the trial. […] The variables are listed in descending order according to their impact on the overall risk of major adverse cardiovascular events (MACE), here consisting of cardiovascular death, non-fatal myocardial infarction, or non-fatal stroke. The combination of these variables yields an algorithm that can be used to determine the risk of future MACEs and to determine the benefit of being treated with IDeg compared to IGlar.
The CV risk score and estimated MACE hazard ratio for CV risk scores by quartiles based on number of events are presented in FIG. 1. […] This benefit is seen regardless of which of the individual predictors contribute to the high score.
For example, subjects with a BMI ≥30 kg/m^2 and diastolic blood pressure ≥80 mmHg, and subjects with a diastolic blood pressure ≥80 mmHg who were treated with statins would have a benefit with IDeg compared to IGlar in terms of risk of MACE (Table 25).

[3] = test system: human subjects with type 2 diabetes inadequately controlled with basal insulin and metformin; test: Example 4: 26-week double-blind trial, IDegLira vs IDeg, both added to metformin
Method: (§2) A 26-week randomised, parallel two-arm, double-blind, multi-centre, multinational, treat-to-target trial in 413 human subjects with type 2 diabetes inadequately controlled with basal insulin and metformin with or without SU or glinides was carried out comparing the efficacy and safety of insulin degludec+liraglutide (Xultophy®, IDegLira) once daily with insulin degludec (Tresiba®, IDeg) once daily both added on to metformin. […] The secondary objective was to compare the overall efficacy and safety parameters of IDegLira and IDeg after 26 weeks of treatment. All trial endpoints were collected and assessed throughout the entire duration of the trial.
(§3) Eligible subjects were randomised 1:1 to either once daily IDegLira or once daily IDeg, both in combination with metformin. […] For each subject, the duration of the trial was to be approximately 29 weeks: up to 2 weeks between screening and first treatment, 26 weeks of treatment and at least 1 week of wash-out at the end of the trial.
(§4) The IDegLira dosing unit is defined as a dose step. One (1) IDegLira dose step consists of 1 unit insulin degludec and 0.036 mg liraglutide. Treatment with IDegLira was initiated at 16 dose steps containing 16 units insulin degludec and 0.6 mg liraglutide. Adjustment of the IDegLira dose was performed twice weekly based on the mean of 3 preceding daily fasting SMPG values on 3 consecutive days. Adjustments occurred in 2 dose steps aiming at a fasting glycaemic target of 4.0-5.0 mmol/L (72-90 mg/dL). The maximum allowed dose was 50 dose steps (50 units IDeg/1.8 mg liraglutide). IDeg treatment was initiated with 16 units, and titrated twice weekly to the fasting glycaemic target of 4.0-5.0 mmol/L (72-90 mg/dL) based on the mean fasting SMPG from 3 proceeding measurements as described for IDegLira. The maximum allowed dose was 50 units.
(§5) Subjects received IDegLira or IDeg by subcutaneous administration in addition to metformin. IDegLira or IDeg was injected subcutaneously in the thigh, upper arm (deltoid region) or abdomen once daily preferably at the same time every day. The injection area chosen were to remain unchanged throughout the trial, but rotation within the area was recommended.

[4] = test system: human subjects with type 2 diabetes inadequately controlled with basal insulin and metformin; settings: in vivo
Method: as §2, §3, §4, §5

Which “Systolic Blood Pressure variability, Rate” value [1] does the source give for “N^εB29-(N^α-(HOOC(CH2)14CO)-γ-Glu) desB30 human insulin [IDeg]” here?
Its value is 0.94.

What about the “8PP SMPG - Within-day variability, Rate” value ([1]; relative fluctuation of 8-point profile, log scale ANOVA) of the same substance?
Its value is 0.98.

And the “Pre-breakfast SMPG - between-day variability, Rate” value ([1]; variances analysed on log scale, ANOVA)?
The value was 0.90.

And the “HR (MACE, IDeg/IGlar)” value ([2]; CV risk score High)?
The value was 1.04.

What about the “HR (MACE, IDeg/IGlar)” value ([2]; CV risk score Low) of the same substance?
The value was 1.02.

What about the “HR (MACE, IDeg/IGlar)” value ([2]; CV risk score Moderate) of the same substance?
Its value is 0.89.

What about the “HR (MACE, IDeg/IGlar)” value ([2]; CV risk score Very High) of the same substance?
The value was 0.67.

What about the “hazard ratio IDeg/IGlar (risk of MACE)” value ([2]; patients who have a high CV risk score) of the same substance?
Its value is under 1.

And the “Estimate (risk of MACE, IDeg compared to IGlar)” value ([2]; subgroup: Age 65-75 years AND systolic blood pressure < 140 mmHg)?
The value was 0.70.

What about the “Estimate (risk of MACE, IDeg compared to IGlar)” value ([2]; subgroup: Age < 65 years AND diastolic blood pressure ≥ 80 mmHg) of the same substance?
Its value is 0.64.

And the “Estimate (risk of MACE, IDeg compared to IGlar)” value ([2]; subgroup: Age < 65 years AND treated with statins)?
The value was 0.75.

And the “Estimate (risk of MACE, IDeg compared to IGlar)” value ([2]; subgroup: BMI ≥ 30 kg/m^2 AND diastolic blood pressure ≥ 80 mmHg)?
The value was 0.68.

What about the “Estimate (risk of MACE, IDeg compared to IGlar)” value ([2]; subgroup: Diastolic blood pressure < 90 mmHg AND HDL ≥ 1.0 mmol/L) of the same substance?
The value was 0.80.

What about the “Estimate (risk of MACE, IDeg compared to IGlar)” value ([2]; subgroup: Diastolic blood pressure ≥ 80 mmHg AND treated with statins) of the same substance?
Its value is 0.73.

And the “Estimate (risk of MACE, IDeg compared to IGlar)” value ([2]; subgroup: Diastolic blood pressure ≥ 80 mmHg AND triglycerides > 1.7 mmol/L)?
Its value is 0.69.

And the “Estimate (risk of MACE, IDeg compared to IGlar)” value ([2]; subgroup: Established CV risk AND HDL ≥ 1.0 mmol/L)?
The value was 0.78.

What about the “Estimate (risk of MACE, IDeg compared to IGlar)” value ([2]; subgroup: Established CV risk AND diastolic blood pressure ≥ 80 mmHg) of the same substance?
The value was 0.76.

What about the “Estimate (risk of MACE, IDeg compared to IGlar)” value ([2]; subgroup: Established CV risk AND pulse ≥ 70 bpm) of the same substance?
The value was 0.80.

And the “Estimate (risk of MACE, IDeg compared to IGlar)” value ([2]; subgroup: Height <170 cm AND treated with statins)?
Its value is 0.75.

And the “Estimate (risk of MACE, IDeg compared to IGlar)” value ([2]; subgroup: Non-White AND diastolic blood pressure < 90 mmHg)?
The value was 0.64.

What about the “Estimate (risk of MACE, IDeg compared to IGlar)” value ([2]; subgroup: Not Hispanic or Latino AND Non-White) of the same substance?
Its value is 0.64.

And the “Estimate (risk of MACE, IDeg compared to IGlar)” value ([2]; subgroup: Not Hispanic or Latino AND triglycerides > 1.7 mmol/L)?
The value was 0.79.

What about the “Estimate (risk of MACE, IDeg compared to IGlar)” value ([2]; subgroup: Previous smoker AND age < 65 years) of the same substance?
The value was 0.73.

And the “Estimate (risk of MACE, IDeg compared to IGlar)” value ([2]; subgroup: Previous smoker AND cholesterol ≥ 3 mmol/L)?
Its value is 0.79.

What about the “Estimate (risk of MACE, IDeg compared to IGlar)” value ([2]; subgroup: Previous smoker AND diastolic blood pressure ≥ 80 mmHg) of the same substance?
Its value is 0.66.

What about the “Estimate (risk of MACE, IDeg compared to IGlar)” value ([2]; subgroup: Previous smoker AND treated with statins) of the same substance?
Its value is 0.79.

And the “Estimate (risk of MACE, IDeg compared to IGlar)” value ([2]; subgroup: Previous smoker AND triglycerides > 1.7 mmol/L)?
Its value is 0.73.

What about the “Estimate (risk of MACE, IDeg compared to IGlar)” value ([2]; subgroup: Pulse ≥ 70 bpm AND diastolic blood pressure ≥ 80 mmHg) of the same substance?
The value was 0.74.

What about the “Estimate (risk of MACE, IDeg compared to IGlar)” value ([2]; subgroup: Pulse ≥ 70 bpm AND triglycerides > 1.7 mmol/L) of the same substance?
Its value is 0.76.

What about the “Estimate (risk of MACE, IDeg compared to IGlar)” value ([2]; subgroup: Pulse ≥ 70 mmHg AND treated with statins) of the same substance?
The value was 0.72.

What about the “Estimate (risk of MACE, IDeg compared to IGlar)” value ([2]; subgroup: Systolic blood pressure <140 mmHg AND HDL ≥ 1.0 mmol/L) of the same substance?
The value was 0.73.

What about the “Estimate (risk of MACE, IDeg compared to IGlar)” value ([2]; subgroup: Triglycerides > 1.7 mmol/L AND HDL ≥ 1.0 mmol/L) of the same substance?
Its value is 0.69.

What about the “Estimate (risk of MACE, IDeg compared to IGlar)” value ([2]; subgroup: Triglycerides > 1.7 mmol/L AND treated with statins) of the same substance?
Its value is 0.78.

What about the Free fatty acids ([3]; Baseline) of the same substance?
The Free fatty acids was 0.5 mmol/L.

What about the HDL cholesterol ([3]; Baseline) of the same substance?
The HDL cholesterol was 1.2 mmol/L.

What about the LDL cholesterol ([3]; Baseline) of the same substance?
The LDL cholesterol was 2.4 mmol/L.

What about the Total cholesterol ([3]; Baseline) of the same substance?
The Total cholesterol was 4.6 mmol/L.

And the Triglycerides ([3]; Baseline)?
Its Triglycerides is 1.8 mmol/L.

And the VLDL cholesterol ([3]; Baseline)?
Its VLDL cholesterol is 0.8 mmol/L.

And the Free fatty acids ([3]; End of trial (26 weeks))?
Its Free fatty acids is 0.4 mmol/L.

What about the HDL cholesterol ([3]; End of trial (26 weeks)) of the same substance?
Its HDL cholesterol is 1.2 mmol/L.

And the LDL cholesterol ([3]; End of trial (26 weeks))?
Its LDL cholesterol is 2.4 mmol/L.

And the Total cholesterol ([3]; End of trial (26 weeks))?
The Total cholesterol was 4.5 mmol/L.

What about the Triglycerides ([3]; End of trial (26 weeks)) of the same substance?
The Triglycerides was 1.6 mmol/L.

And the VLDL cholesterol ([3]; End of trial (26 weeks))?
Its VLDL cholesterol is 0.7 mmol/L.

What about the ΔDiastolic blood pressure ([3]; change from baseline, 26 weeks) of the same substance?
The ΔDiastolic blood pressure was −0.7 mmHG.

What about the ΔSystolic blood pressure ([3]; change from baseline, 26 weeks) of the same substance?
Its ΔSystolic blood pressure is −1.7 mmHG.

What about the “Adverse event and tolerability profiles” value [4] of the same substance?
Its value is “consistent with previous findings”.

What about the ΔHeart rate [4] of the same substance?
The ΔHeart rate was −0.6 bpm.
